Results from the supplement of paper PMC10307832.

Key:
Experiment in all cases: relative viability (nuclei count vs DMSO), 5 days (fraction); higher = more cells survive
[1] = compound: CCOc1cc2ncc(C#N)c(Nc3ccc(OCc4ccccn4)c(Cl)c3)c2cc1NC(=O)/C=C/CN(C)C [Neratinib] + NC(=O)Nc1cc(-c2cccc(F)c2)sc1C(=O)N[C@H]1CCCNC1 [AZD7762] (partner 0.2 µM)
In short: (§1)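 Lung cancer cell lines, seeded in 1536-well plates, were treated the following day by pin tool with a single drug or with five library-drug doses (not always all listed) in √10 steps on top of a fixed anchor-drug dose. Cells were fixed and nuclei stained in one step after 5 days, and nuclei were counted. Relative viability is the nuclei count for treated wells divided by that for vehicle wells, reported as medians of duplicate plates.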

[2] = compound: CCOc1cc2ncc(C#N)c(Nc3ccc(OCc4ccccn4)c(Cl)c3)c2cc1NC(=O)/C=C/CN(C)C [Neratinib] + C[C@@H](Oc1cc(-c2cnn(C3CCNCC3)c2)cnc1N)c1c(Cl)ccc(F)c1Cl [Crizotinib] (partner 1 µM)
In short: as §1

[3] = compound: CCOc1cc2ncc(C#N)c(Nc3ccc(OCc4ccccn4)c(Cl)c3)c2cc1NC(=O)/C=C/CN(C)C [Neratinib] + CC(=O)c1c(C)c2cnc(Nc3ccc(N4CCNCC4)cn3)nc2n(C2CCCC2)c1=O [Palbociclib] (partner 0.5 µM)
In short: as §1

[4] = compound: CCOc1cc2ncc(C#N)c(Nc3ccc(OCc4ccccn4)c(Cl)c3)c2cc1NC(=O)/C=C/CN(C)C [Neratinib] + O=C(CCCCCCC(=O)Nc1ccccc1)NO [Vorinostat] (partner 1 µM)
In short: as §1

Row | Cell Line | relative viability ([1]; first compound 0.01 µM) | relative viability ([1]; first compound 0.03162 µM) | relative viability ([1]; first compound 0.1 µM) | relative viability ([1]; first compound 0.3162 µM) | relative viability ([1]; first compound 1 µM) | relative viability ([2]; first compound 0.01 µM) | relative viability ([2]; first compound 0.03162 µM) | relative viability ([2]; first compound 0.1 µM) | relative viability ([2]; first compound 0.3162 µM) | relative viability ([2]; first compound 1 µM) | relative viability ([3]; first compound 0.01 µM) | relative viability ([3]; first compound 0.03162 µM) | relative viability ([3]; first compound 0.1 µM) | relative viability ([3]; first compound 0.3162 µM) | relative viability ([3]; first compound 1 µM) | relative viability ([4]; first compound 0.01 µM) | relative viability ([4]; first compound 0.03162 µM) | relative viability ([4]; first compound 0.1 µM) | relative viability ([4]; first compound 0.3162 µM) | relative viability ([4]; first compound 1 µM)
1 | HCC-15 | 1.46 | 1.23 | 1.18 | 1.09 | 1.24 | 0.843 | 0.906 | 0.829 | 0.707 | 0.648 | 0.764 | 0.828 | 0.738 | 0.692 | 0.511 | 0.954 | 0.85 | 0.811 | 0.724 | 0.672
2 | HCC-44 | 0.961 | 0.995 | 0.947 | 1.05 | 1.12 | 0.821 | 0.8 | 0.727 | 0.806 | 0.851 | 1.02 | 0.969 | – | 0.926 | 0.966 | 1.11 | 1.09 | 1.12 | 1.1 | 1.09
3 | HCC-78 | 0.797 | 0.602 | 0.541 | 0.424 | 0.415 | 0.325 | 0.3 | 0.284 | 0.264 | 0.225 | 0.467 | 0.479 | 0.409 | 0.424 | 0.463 | 0.547 | 0.408 | 0.352 | 0.362 | 0.28
4 | HCC-366 | – | 0.307 | 0.147 | 0.232 | 0.169 | 0.653 | 0.766 | 0.46 | 0.48 | 0.519 | 0.418 | 0.464 | 0.353 | 0.431 | 0.211 | 0.337 | 0.408 | 0.345 | 0.381 | 0.312
5 | HCC-827 | 0.217 | 0.236 | 0.132 | 0.129 | 0.132 | 0.986 | 0.996 | 0.778 | 0.7 | 0.176 | 0.503 | 0.509 | 0.513 | 0.194 | 0.15 | 0.929 | 0.975 | 0.817 | 0.395 | 0.205
6 | HOP-62 | 0.672 | 0.525 | 0.559 | – | 0.443 | 1.07 | 1.05 | 0.806 | 0.932 | 0.958 | 0.455 | 0.475 | 0.383 | – | 0.303 | 0.608 | 0.691 | 0.586 | – | 0.72
7 | LC-2-ad | 0.832 | 0.894 | – | 0.551 | 0.327 | 0.456 | 0.457 | 0.41 | 0.386 | 0.294 | 0.487 | 0.507 | 0.41 | 0.442 | 0.499 | 0.662 | 0.739 | 0.687 | 0.664 | 0.709
8 | LCLC-97TM1 | 0.224 | 0.251 | 0.218 | 0.207 | 0.304 | 0.344 | 0.33 | 0.314 | 0.242 | 0.136 | 0.258 | 0.237 | 0.228 | – | 0.117 | 0.985 | 0.822 | 0.762 | – | 0.48
9 | LCLC-103H | 0.818 | 0.812 | 0.655 | 0.857 | 0.68 | 1.09 | 0.989 | 0.88 | 0.892 | 0.884 | 0.517 | 0.478 | 0.457 | 0.474 | 0.46 | – | 0.822 | 0.72 | 0.796 | 0.775
10 | LK-2 | 0.358 | 0.309 | 0.368 | 0.145 | 0.175 | 0.209 | 0.191 | 0.206 | 0.211 | 0.253 | 0.868 | 0.752 | – | 0.476 | 0.522 | 0.29 | 0.37 | 0.292 | 0.219 | 0.271
11 | LOU-NH91 | 0.791 | 0.728 | 0.717 | 0.664 | 0.496 | 0.735 | 0.669 | 0.588 | 0.501 | 0.479 | 0.504 | 0.547 | 0.557 | 0.462 | 0.536 | 0.936 | – | 0.748 | – | 0.609
12 | LU99A | 0.426 | 0.403 | 0.314 | 0.374 | 0.263 | 0.513 | 0.586 | 0.472 | 0.527 | 0.32 | 0.377 | 0.434 | 0.356 | 0.385 | 0.329 | 0.428 | 0.465 | 0.469 | 0.529 | 0.43
13 | LXF-289 | 1.09 | 1.12 | 1.04 | 1.21 | – | 0.879 | 0.871 | 0.75 | 0.821 | 0.752 | 0.633 | 0.631 | 0.554 | – | 0.58 | 0.819 | 0.866 | 0.732 | 0.803 | 0.765
14 | NCI-H23 | 0.253 | 0.329 | 0.25 | 0.217 | 0.191 | 0.697 | 0.572 | 0.413 | 0.486 | 0.27 | 0.48 | 0.579 | 0.482 | 0.563 | 0.318 | 0.699 | 0.7 | 0.641 | 0.493 | 0.491
15 | NCI-H322M | 0.49 | 0.544 | 0.503 | 0.409 | 0.437 | – | 1.02 | 0.791 | 0.659 | 0.291 | 0.468 | 0.475 | 0.417 | 0.376 | 0.41 | 0.98 | 0.859 | 0.822 | 0.524 | 0.445
16 | NCI-H358 | 0.533 | 0.508 | 0.358 | 0.257 | 0.223 | 0.65 | 0.409 | 0.391 | 0.161 | 0.182 | 0.143 | 0.112 | 0.125 | 0.12 | 0.129 | 0.659 | 0.538 | 0.282 | 0.148 | 0.106
17 | NCI-H441 | 1.12 | 1.32 | 0.958 | 0.987 | 0.73 | 0.73 | 0.74 | 0.587 | 0.606 | 0.268 | 0.244 | 0.192 | 0.177 | 0.163 | 0.161 | 0.794 | 0.817 | 0.747 | 0.777 | 0.633
